According to patent US20070128217A1 (priority 2003, published 2007):

Experiments:
[1] = tested on: recombinant human anti-SARS-CoV antibody 03-018; assay type: binding; set-up: Binding of antibody 03-018 to linear peptides of the N protein of SARS-CoV Urbani / Binding of antibody 03-018 to looped/cyclic peptides of the N protein of SARS-CoV Urbani: unit not given here
[2] = tested on: rabbit serum obtained by immunizing a rabbit with the SARS-CoV strain Frankfurt 1; assay type: binding; set-up: Binding of a rabbit serum to linear peptides / Binding of a rabbit serum to looped peptides / Rabbit serum linear peptides / Rabbit serum looped peptides / Binding of a rabbit serum to linear peptides of protein N of SARS-CoV Urbani (Rabbit serum linear peptides) / Binding of a rabbit serum to looped/cyclic peptides of protein N of SARS-CoV Urbani (Rabbit serum looped peptides): unit not given here
[3] = tested on: control sera (pooled serum of ten healthy LUMC hospital workers; commercial negative donor pooled serum from the Dutch bloodbank); assay type: binding, human; set-up: Binding of Control serum LUMC to linear peptides / Binding of Control serum Blood-bank to linear peptides / Binding of Control serum LUMC to looped peptides / Binding of Control Serum Blood-Bank to Looped peptides / Binding of Control serum LUMC to linear peptides of the protein M of SARS-CoV Urbani / Binding of Control serum Blood-bank to linear peptides of the protein M of SARS-CoV Urbani / Binding of Control serum LUMC to looped peptides of the protein M of SARS-CoV Urbani / Binding of Control Serum Blood-Bank to Looped peptides of the protein M of SARS-CoV Urbani: unit not given here
[4] = tested on: antibodies in sera from SARS patients (sera 1a, 1b, 2, 6, 37, 62, London, SARS-yellow, SARS-green); assay type: binding, human; set-up: Binding of serum 6 to linear peptides of protein X1 of SARS-CoV Urbani / Binding of serum 37 to linear peptides of protein X1 of SARS-CoV Urbani / Binding of serum 6 to looped/cyclic peptide (PEPSCAN-ELISA) / Binding of serum 37 to looped/cyclic peptide (PEPSCAN-ELISA) / Binding of serum 37 to looped/cyclic peptides of protein X1 of SARS-CoV Urbani / Binding of serum 6 to linear peptides of protein X2 / Binding of serum 37 to linear peptides of protein X2 / Binding of serum 37 to looped/cyclic peptides of protein X2 of SARS-CoV Urbani / Binding of serum 6 to linear peptides of protein M of SARS-CoV Urbani / Binding of serum 37 to linear peptides of protein M of SARS-CoV Urbani / Binding of serum 6 to looped/cyclic peptides of protein M of SARS-CoV Urbani / Binding of serum 37 to looped/cyclic peptides of protein M of SARS-CoV Urbani / Binding of serum 6 to linear peptides of protein X3 of SARS-CoV Urbani / Binding of serum 37 to linear peptides of protein X3 of SARS-CoV Urbani / Binding of serum 37 to looped/cyclic peptides of protein X3 of SARS-CoV Urbani / Binding of serum 6 to linear peptides of protein X4 of SARS-CoV Urbani / Binding of serum 37 to linear peptides of protein X4 of SARS-CoV Urbani / Binding of serum 37 to looped/cyclic peptides of protein X4 of SARS-CoV Urbani / Binding of serum 6 to linear peptides of protein X5 of SARS-CoV Urbani / Binding of serum 37 to linear peptides of protein X5 of SARS-CoV Urbani / Binding of serum 37 to looped/cyclic peptides of protein X5 of SARS-CoV Urbani / Binding of serum 6 to linear peptides of protein N of SARS-CoV Urbani / Binding of serum 37 to linear peptides of protein N of SARS-CoV Urbani / Binding of serum 6 to linear peptide (PEPSCAN-ELISA) / Binding of serum 1a to looped/cyclic peptides of protein N of SARS-CoV Urbani / Binding of serum 1b to looped/cyclic peptides of protein N of SARS-CoV Urbani / Binding of serum 2 to looped/cyclic peptides of protein N of SARS-CoV Urbani / Binding of serum 6 to looped/cyclic peptides of protein N of SARS-CoV Urbani / Binding of serum 37 to looped/cyclic peptides of protein N of SARS-CoV Urbani / Binding of serum 62 to looped/cyclic peptides of protein N of SARS-CoV Urbani / Binding of serum London to looped/cyclic peptides of protein N of SARS-CoV Urbani / Binding of serum SARS-green to looped/cyclic peptides of protein N of SARS-CoV Urbani: unit not given here

| Sequence | Binding of antibody 03-018 to linear peptides of the N protein of SARS-CoV Urbani [1] | Binding of antibody 03-018 to looped/cyclic peptides of the N protein of SARS-CoV Urbani [1] | Binding of a rabbit serum to linear peptides of protein N of SARS-CoV Urbani (Rabbit serum linear peptides) [2] | Binding of a rabbit serum to looped/cyclic peptides of protein N of SARS-CoV Urbani (Rabbit serum looped peptides) [2] | Binding of Control Serum Blood-Bank to Looped peptides [3] | Binding of Control serum Blood-bank to linear peptides [3] | Binding of Control serum LUMC to linear peptides [3] | Binding of Control serum LUMC to looped peptides [3] | Binding of serum 1a to linear peptides of protein N of SARS-CoV Urbani [4] | Binding of serum 1a to looped/cyclic peptides of protein N of SARS-CoV Urbani [4] | Binding of serum 1b to linear peptides of protein N of SARS-CoV Urbani [4] | Binding of serum 1b to looped/cyclic peptides of protein N of SARS-CoV Urbani [4] | Binding of serum 2 to linear peptides of protein N of SARS-CoV Urbani [4] | Binding of serum 2 to looped/cyclic peptides of protein N of SARS-CoV Urbani [4] | Binding of serum 6 to looped/cyclic peptides of protein N of SARS-CoV Urbani [4] | Binding of serum 37 to looped/cyclic peptides of protein N of SARS-CoV Urbani [4] | Binding of serum 62 to looped/cyclic peptides of protein N of SARS-CoV Urbani [4] | Binding of serum London to looped/cyclic peptides of protein N of SARS-CoV Urbani [4] | Binding of serum SARS-green to looped/cyclic peptides of protein N of SARS-CoV Urbani [4] | Binding of serum SARS-yellow to looped/cyclic peptides of protein N of SARS-CoV Urbani [4] | also measured |
| --- | --- | --- | --- | --- | --- | --- | --- | --- | --- | --- | --- | --- | --- | --- | --- | --- | --- | --- | --- | --- | --- |
| TRNPNNNAATVLQLP | 0.1 | 0.2 | 0.1 | 0.5 | 0.8 | 0.7 | 0.8 | 0.7 | 0.3 | 0.4 | 0.1 | 0.3 | 0.3 | 0.7 | 0.3 | 0.6 | 0.5 | 0.5 | 0.8 | 0.5 | Binding of serum 6 to linear peptides of protein N of SARS-CoV Urbani [4]: 0.2; Binding of serum 37 to linear peptides of protein N of SARS-CoV Urbani [4]: 0.6; Binding of serum 62 to linear peptides of protein N of SARS-CoV Urbani [4]: 0.7; Binding of serum London to linear peptides of protein N of SARS-CoV Urbani [4]: 0.5; Binding of serum SARS-green to linear peptides of protein N of SARS-CoV Urbani [4]: 0.3; Binding of serum SARS-yellow to linear peptides of protein N of SARS-CoV Urbani [4]: 0.7 |
| TRRVRGGDGKMKELS | 0.1 | 0.2 | 0.2 | 0.3 | 0.5 | 0.7 | 0.8 | 0.5 | 0.3 | 0.2 | 0.2 | 0.1 | 0.3 | 0.2 | 0.2 | 0.4 | 0.3 | 0.3 | 0.0 | 0.2 | Binding of serum 6 to linear peptides of protein N of SARS-CoV Urbani [4]: 0.3; Binding of serum 37 to linear peptides of protein N of SARS-CoV Urbani [4]: 0.7; Binding of serum 62 to linear peptides of protein N of SARS-CoV Urbani [4]: 0.8; Binding of serum London to linear peptides of protein N of SARS-CoV Urbani [4]: 0.5; Binding of serum SARS-green to linear peptides of protein N of SARS-CoV Urbani [4]: 0.3; Binding of serum SARS-yellow to linear peptides of protein N of SARS-CoV Urbani [4]: 0.7 |
| TVTKKSAAEASKKPR | 0.1 | 0.2 | 0.2 | 0.5 | 0.4 | 1.0 | 1.0 | 0.3 |  | 0.2 |  | 0.1 |  | 0.2 | 0.1 | 0.5 | 0.3 | 0.3 | 0.0 | 0.2 | Recognition of the peptide by sera of SARS-CoV infected individuals, and form (linear, looped/cyclic) in which it is recognized [4]: recognized in linear form |
